According to article PMC10913735, “New myxobacteria of the Myxococcaceae clade produce angiolams with antiparasitic activities” (Microbiology Spectrum, 2024):
Where two headings read alike, the source gives them in different places. Blank lines part the entries; values can stand above or below the compound they belong to.

Key:
[1] = system: Trypanosoma brucei rhodesiense (STIB 900) bloodstream forms; experiment: In vitro activity against Trypanosoma brucei rhodesiense bloodstream forms; format: cell-based; details: for T. b. rhodesiense SI (selectivity index): IC50 in L6 cells divided by IC50 in T. b. rhodesiense; for IC50: Trypanosoma brucei, read-out: T. b. rhodesiense IC50
Experimental: (§1) Based on the antiparasitic bioactivity of the crude extract of MCy12716, angiolams A (1), B (2), C (3), D (4), and F (5) were tested for their in vitro activities against the following protozoan parasites: Trypanosoma brucei rhodesiense (STIB 900) bloodstream forms, Trypanosoma cruzi (Tulahuen C4) amastigotes, Leishmania donovani (MHOM/ET/67/L82) axenic amastigotes, and Plasmodium falciparum (NF54) proliferative erythrocytic stages. In parallel, the cytotoxicity of these compounds in rat skeletal myoblasts (L-6 cells) was determined in order to obtain an initial assessment of their selectivity.
(§2) In vitro activity assays against a panel of protozoal parasites, namely Trypanosoma brucei rhodesiense (STIB 900), Trypanosoma cruzi (Tulahuen C4), Leishmania donovani (MHOM/ET/67/L82), and Plasmodium falciparum (NF54), and cytotoxicity tests against mammalian cells (L6-cell line from rat-skeletal myoblasts) were performed according to previously described methods ([2], [3]). All assays were performed in at least three independent replicates.

[2] = system: Trypanosoma cruzi (Tulahuen C4) amastigotes; experiment: In vitro activity against Trypanosoma cruzi amastigotes; format: cell-based; details: for T. cruzi SI (selectivity index): IC50 in L6 cells divided by IC50 in T. cruzi; for IC50: Trypanosoma cruzi, Tulahuen C4, mean of at least three independent replicates ± SD, read-out: T. cruzi IC50
Experimental: as §1, §2

[3] = system: Leishmania donovani (MHOM/ET/67/L82) axenic amastigotes; experiment: In vitro activity against Leishmania donovani axenic amastigotes; format: cell-based; details: for L. donovani SI (selectivity index): IC50 in L6 cells divided by IC50 in L. donovani; for IC50: Leishmania donovani, MHOM-ET-67/L82 axenic amastigotes, mean of at least three independent replicates ± SD, read-out: L. donovani IC50
Experimental: as §1, §2

[4] = system: Plasmodium falciparum (NF54) proliferative erythrocytic stages; experiment: In vitro activity against Plasmodium falciparum erythrocytic stages; format: cell-based; details: for P. falciparum SI (selectivity index): IC50 in L6 cells divided by IC50 in P. falciparum; for IC50: Plasmodium falciparum
Experimental: In parallel, the cytotoxicity of these compounds in rat skeletal myoblasts (L-6 cells) was determined in order to obtain an initial assessment of their selectivity.
as §2

Cytotoxicity in L6 cells = format: cell-based, rat
Experimental: as §1, §2

[5] = STIB 900, mean of at least three independent replicates ± SD
[6] = NF54, mean of at least three independent replicates ± SD, read-out: P. falciparum IC50
[7] = L6 rat skeletal myoblasts, mean of at least three independent replicates ± SD, read-out: Cytotoxicity in L6 cells IC50

Compound: C=C/C=C(\C)[C@@H](O)CC[C@@H](C)/C=C/[C@@H]1CC[C@@H](C)C(=O)CC(=O)N[C@@H](C)CCC(=O)[C@@H](C)[C@H](O)[C@@H](C)/C=C(\C)C(=O)O1 [Angiolam A, angiolam A]
- T. b. rhodesiense SI (selectivity index) [1]: 63.2
- IC50 [1, 5]: 1.5 ± 0.6 µM
- T. cruzi SI (selectivity index) [2]: 7.3
- IC50 [2]: 12.9 ± 5.3 µM
- L. donovani SI (selectivity index) [3]: 5.62
- IC50 [3]: 16.7 ± 7.3 µM
- P. falciparum SI (selectivity index) [4]: 34.9
- IC50 [4, 6]: 2.7 ± 0.5 µM
- IC50 (Cytotoxicity in L6 cells; rat): 94 ± 23.7 µM

Compound: C=C/C=C(\C)C(=O)CC[C@@H](C)/C=C/[C@@H]1CC[C@@H](C)C(=O)CC(=O)N[C@@H](C)CCC(=O)[C@@H](C)[C@H](O)[C@@H](C)/C=C(\C)C(=O)O1 [Angiolam B, angiolam B]
- T. b. rhodesiense SI (selectivity index) [1]: 4.4
- IC50 [1, 5]: 6.3 ± 1 µM
- T. cruzi SI (selectivity index) [2]: ≤ 2.1
- T. cruzi SI (selectivity index) ([2]; listed as Angiolam B (2)): 0.9
- IC50 [2]: 30.4 ± 10 µM
- L. donovani SI (selectivity index) [3]: 4.22
- IC50 [3]: 6.6 ± 1.9 µM
- P. falciparum SI (selectivity index) [4]: ≥ 30
- P. falciparum SI (selectivity index) ([4]; listed as Angiolam B (2)): 91.6
- IC50 [4, 6]: 0.3 ± 0.1 µM
- IC50 (Cytotoxicity in L6 cells; rat): 27.8 ± 2 µM

Compound: CC/C=C(\C)[C@@H](O)CC[C@@H](C)/C=C/[C@@H]1CC[C@@H](C)C(=O)CC(=O)N[C@@H](C)CCC(=O)[C@@H](C)[C@H](O)[C@@H](C)/C=C(\C)C(=O)O1 [Angiolam C, angiolam C]
- T. b. rhodesiense SI (selectivity index) [1]: 6.8
- IC50 [1, 5]: 4.5 ± 0.4 µM
- T. cruzi SI (selectivity index) [2]: ≤ 2.1
- T. cruzi SI (selectivity index) ([2]; listed as Angiolam C (3)): 0.9
- IC50 [2]: 34 ± 11.6 µM
- L. donovani SI (selectivity index) [3]: 1.99
- IC50 [3]: 15.4 ± 2.3 µM
- P. falciparum SI (selectivity index) [4]: ≥ 30
- P. falciparum SI (selectivity index) ([4]; listed as Angiolam C (3)): 53.7
- IC50 [4, 6]: 0.6 ± 0.4 µM
- IC50 (Cytotoxicity in L6 cells; rat): 30.6 ± 2.3 µM

Compound: C=C/C=C(\C)[C@@H](O)CC[C@@H](C)/C=C/[C@@H]1CC[C@@H](C)C(=O)CC(=O)N[C@@H](C)CCC(=O)[C@@H](C)[C@H](O)[C@@H](C)/C=C(\CC)C(=O)O1 [Angiolam D, angiolam D]
- T. b. rhodesiense SI (selectivity index) [1]: 6.0
- IC50 [1, 5]: 4.7 ± 1.9 µM
- T. cruzi SI (selectivity index) [2]: 4.3
- IC50 [2]: 6.5 ± 2.2 µM
- L. donovani SI (selectivity index) [3]: 3.38
- IC50 [3]: 8.2 ± 4.5 µM
- P. falciparum SI (selectivity index) ([4]; listed as Angiolam D (4)): 37.1
- IC50 [4, 6]: 0.8 ± 0.6 µM
- IC50 (Cytotoxicity in L6 cells; [7]): 27.8 ± 3.7 µM

Compound: C=C/C=C(\C)[C@@H](O)CC[C@@H](C)/C=C/[C@@H]1CC[C@@H](C)C(=O)CC(=O)N[C@@H](C)CCC(=O)[C@@H](C)[C@H](O)[C@@H](CC)/C=C(\CC)C(=O)O1 [Angiolam F, angiolam F]
- T. b. rhodesiense SI (selectivity index) [1]: 2.0
- IC50 [1, 5]: 25 ± 1.4 µM
- T. cruzi SI (selectivity index) [2]: ≤ 2.1
- T. cruzi SI (selectivity index) ([2]; listed as Angiolam F (5)): 2.1
- IC50 [2]: 24.4 ± 5 µM
- L. donovani SI (selectivity index) [3]: 2.83
- IC50 [3]: 17.6 ± 2.1 µM
- P. falciparum SI (selectivity index) [4]: 37
- P. falciparum SI (selectivity index) ([4]; listed as Angiolam F (5)): 37.4
- IC50 [4, 6]: 1.3 ± 0.6 µM
- IC50 (Cytotoxicity in L6 cells; rat): 49.9 ± 21.6 µM

Compound: O=C(Cn1ccnc1[N+](=O)[O-])NCc1ccccc1 [Benznidazole, reference compound]
- IC50 [2]: 2.47 µM

Compound: CCN(CC)CCCC(C)Nc1ccnc2cc(Cl)ccc12 (centres unmarked) [Chloroquine, reference compound]
- IC50 ([4]; NF54, read-out: P. falciparum IC50): 0.004 µM

Compound: Nc1nc(N)nc(Nc2ccc([As]3SCC(CO)S3)cc2)n1 (centres unmarked) [Melarsoprol, reference compound]
- IC50 [1]: 0.02 µM

- IC50 [3]: 0.53 µM
Compound: CCCCCCCCCCCCCCCCOP(=O)([O-])OCC[N+](C)(C)C [Miltefosine, reference compound]

Compound: COc1cc([C@@H]2c3cc4c(cc3[C@H](O)[C@H]3COC(=O)[C@H]23)OCO4)cc(OC)c1OC [Podophyllotoxin, reference compound]
- IC50 (Cytotoxicity in L6 cells; [7]): 0.02 µM
